Reference: publication PMC11783601, “Analogue-Sensitive Inhibition of Histone Demethylases Uncovers Member-Specific Function in Ribosomal Protein Synthesis” (Journal of the American Chemical Society, 2025)
Entries after “also recorded” stand apart in the source; their conditions may differ.

What was measured:
[1] = target: T1, wild type KDM4A (Homo sapiens, UniProt O75164); assay: MALDI-MS end-point demethylase assay on H3K9me3 peptide; format: biochemical
T1 construct: human KDM4A-jmjC domain (catalytic domain of KDM4A); 6xHis (N); host or cells: E. coli BL21 (DE3)
T1 sequence (O75164 142-308 limits assumed): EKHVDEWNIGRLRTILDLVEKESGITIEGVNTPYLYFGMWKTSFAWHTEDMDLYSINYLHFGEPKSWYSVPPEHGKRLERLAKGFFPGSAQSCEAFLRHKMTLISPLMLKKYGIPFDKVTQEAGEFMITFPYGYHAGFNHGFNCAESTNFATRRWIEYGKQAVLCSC
From the text: To develop an appropriate inhibitor, we selected N-oxalyl glycine (NOG, 2) scaffold because of its structural similarity with 2OG and the ability to inhibit 2OG-utilizing enzymes including KDMs (Figure 1C).[29]−[31] Substituting −CH2– at C3 of 2OG with −NH– in NOG prevents its oxidative decarboxylation by KDMs, making the inhibitor cofactor-competitive. […] We synthesized a panel of eight NOG analogues (3–10), derived from L-amino acids, carrying varied steric substituents at C4, with the reasoning that a bulky substituent at C4 would selectively fit into the expanded pocket of F185A over wild type KDM4A (Figures 2B and S1–S6, Schemes S1 and S2). The inhibitory effect of each compound was determined based on the extent of enzyme-catalyzed demethylation of a canonical peptide substrate corresponding to the N-terminus of histone 3 carrying trimethylated lysine at position 9 (H3K9me3). […] Such orthogonal inhibition of the engineered demethylase constitutes a powerful chemical probe to study the functions of a specific member of an enzyme family without issues of off-target activity.
assay (Biorad) kit with BSA concentrations as a standard. […]
8. […]
2 mM L-ascorbic acid with a total assay volume of 10 µL. Fe(II) supplement and L-ascorbic acid
Lastly, the 2OG and peptide were
positive mode and analyzed on Bruker FlexAnalysis software. The percent demethylated peptide
the multiple demethylation events on the peptide. […]

[2] = system: wild type 2OG enzymes; assay: Off-target activity across wild type 2OG enzymes (MALDI-MS or dot blots); format: biochemical, human; conditions: concentrations up to 200 μM
From the text: We sought to examine the orthogonality of compound 6 across the human 2OG enzyme family. […] These amino acids, bulky and hydrophobic in nature, likely act as the gatekeeper and preclude binding of the NOG analogues to wild type enzymes. To test the off-target activity of 6, we recombinantly expressed the catalytic domains of 12 wild type dioxygenases, in addition to KDM4A-E, thus covering 30–40% of human 2OG enzymes known to have well-characterized substrates (Figure 3D).

[3] = target: T2, PHD2 (EGLN1) (Homo sapiens, UniProt Q9GZT9); assay: MALDI-based assay EGLN1 prolyl hydroxylation of peptide; format: biochemical; conditions: MALDI-TOF, peptide substrate
T2 construct: Full length EGLN1 construct plasmid with; TEV-His (N); host or cells: E. coli BL21 (DE3)
T2 sequence (Q9GZT9 whole entry): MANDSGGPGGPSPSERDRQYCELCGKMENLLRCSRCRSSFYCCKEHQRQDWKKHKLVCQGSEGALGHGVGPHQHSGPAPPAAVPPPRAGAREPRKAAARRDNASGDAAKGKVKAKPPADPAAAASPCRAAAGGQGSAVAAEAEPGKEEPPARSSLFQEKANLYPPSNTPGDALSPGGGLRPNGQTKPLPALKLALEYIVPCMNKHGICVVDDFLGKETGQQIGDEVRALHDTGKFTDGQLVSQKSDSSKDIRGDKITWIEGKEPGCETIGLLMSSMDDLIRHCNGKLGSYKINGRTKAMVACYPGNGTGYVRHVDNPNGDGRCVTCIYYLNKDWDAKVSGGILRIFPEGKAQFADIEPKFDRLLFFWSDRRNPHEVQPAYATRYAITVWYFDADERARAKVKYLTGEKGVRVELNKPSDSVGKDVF
Description: demethylation events on the peptide. The percent peak area was calculated, and the K27me2, me1,
and me0 peaks were summed to get the relative percent demethylated peptide.
MALDI-based assay for FTO and ALKBH5: To determine the enzymatic activity of FTO and
ALKBH5 recombinant proteins in the presence of L-Leu NOG 6, a previously published methods
were utilized.15, 18 Briefly,10 µM of each protein was incubated in the presence of 10 µM RNA
7.5, 150 mM KCl, 50 µM L-Leu NOG or equivalent volume of water in 10 µL aliquots. The
samples were placed on ice for 10 minutes followed by addition of 200 µM 2OG or equivalent
volume of water. After incubation at 37 °C for 30 minutes, samples were desalted with 3 µL of BT
spotted on a MALDI plate with 1uL sample and 1uL of 3-HPA matrix and monitored with Bruker
FlexControl in the reflectron negative mode and analyzed on Bruker FlexAnalysis software.
Relative inhibition was monitored via assessing percent product decrease with L-Leu NOG
MALDI-based assay for C14orf169 (NO66) and MINA: To monitor the enzymatic activity of […]
1 µL S-DHB matrix were spotted on a MALDI plate and monitored with Bruker FlexControl in
the reflectron positive mode and analyzed on Bruker FlexAnalysis software. […]
was monitored via assessing percent product decrease with L-Leu NOG samples compared to no […]
monitored following a reported method.19 To monitor the enzymatic activity of EGLN1 and 3 […]

With `CC(C)CC(NC(=O)C(=O)O)C(=O)O` (stereo not shown) [compound 6, N-oxalyl leucine] the “inhibition of wild type KDM4A demethylase activity (MALDI-MS)” value ([1]; H3K9me3 peptide, 200 µM 2OG, fixed concentration of NOG analogue) was “without affecting”, the “dose-dependent inhibition of wild type KDM4A” value ([1]; up to 500 μM) was “no inhibitory effect; also recorded: does not inhibit” and the “inhibition of wild type 2OG enzymes” value [2] was “did not inhibit”. The “inhibition of PHD2” value [3] was “No inhibition”.
